Assay results from publication PMC3543460, “Structure-Activity Relationships of the Antimicrobial Peptide Arasin 1 — And Mode of Action Studies of the N-Terminal, Proline-Rich Region” (PLoS ONE, 2013).
Values after ≈ are worked out from the molar mass of the structure shown. Peptide text beside a SMILES is read from it.

Legend:
E. coli ATCC 25922 = format: cell-based, Escherichia coli; conditions: ATCC 25922, 24 h
Method: (§1) Escherichia coli (ATCC 25922), E. coli HB101, Pseudomonas aeruginosa (ATCC 27853), Staphylococcus aureus (ATCC 9144) and Corynebacterium glutamicum (ATCC 13032) were grown at 37°C in Mueller Hinton agar (MH; Difco Laboratories, Detroit, USA). The yeasts Candida albicans (ATCC 10231) and Saccharomyces cerevisiae spp and the mold Botrytis cinerea 101 [33] were cultivated on potato dextrose agar supplemented with 2% glucose at room temperature (RT).
(§2) Determination of the MIC against bacteria was performed by continuous monitoring of bacterial growth using a Bioscreen C microbiology reader (Labsystems Oy, Helsinki, Finland). The synthetic peptides were tested for antibacterial and antifungal activity at final concentrations (prepared from serial two-fold dilutions) ranging from 0.2 µM to 100 µM. The test was performed in 100-well flat-bottomed honeycomb plates, in which 50 µl peptide solution was incubated with 50 µl of a suspension of an actively growing culture of bacteria diluted to a starting concentration of 2.5×10^5 CFU/ml in Mueller Hinton Broth (MHB). The growth chamber was maintained at 37°C during the incubation period. The absorbance was measured by a turbidometric method with vertical light photometry and a wide band filter (420–580 nm). MIC was defined as the lowest concentration resulting in no visible bacterial growth after 24 h.

E. coli HB101 [1] = assay: Antibacterial MIC assay (Bioscreen C growth monitoring); format: cell-based, Escherichia coli; conditions: 50% MH
Method: as §1, §2

P. aeruginosa ATCC 27853 = format: cell-based, Pseudomonas aeruginosa; conditions: ATCC 27853, 24 h
Method: as §1, §2

C. glutamicum ATCC 13032 = format: cell-based, Corynebacterium glutamicum; conditions: ATCC 13032, 24 h
Method: as §1, §2

S. aureus ATCC 9144 = format: cell-based, Staphylococcus aureus; conditions: ATCC 9144, 24 h
Method: as §1, §2

S. cerevisiae spp. = format: cell-based, Saccharomyces cerevisiae; conditions: 48 h
Method: as §1
(§3) Fungal spores were dissolved in potato dextrose broth (Difco, Lawrence, KS, USA) and the cell concentration was determined and adjusted after counting in a Bürker chamber. Botrytis cinerea was filtered through a piece of cotton before counting. An aliquot of 50 µl of fungal spores (final concentration 2×10^5 spores/ml) were inoculated in 96-well Nunclon™ microtitre plates (Nagle Nunc Int. Roskilde, Denmark) along with 50 µl of synthetic peptide dissolved in Milli-Q water. Cultures were grown in a dark moist chamber without shaking at 20°C for S. cerevisiae and B. cinerea, and at 37°C for C. albicans. Growth inhibition was determined microscopically after 48 h of incubation. Inhibitory concentrations (IC50) was defined as the lowest concentration tested which yielded less than 50% visible growth compared to the growth control (fungi). Each peptide was tested in parallels in three individual runs for the antimicrobial assays.

C. albicans ATCC 10231 = format: cell-based, Candida albicans; conditions: ATCC 10231, 48 h
Method: as §1, §3

B. cinerea 101 = format: cell-based, Botrytis cinerea
Method: as §1, §3

E. coli HB101 [2] = assay: Bactericidal assay (killing kinetics, colony counts); format: cell-based, Escherichia coli; conditions: 50% MHB, 1×10^6 CFU/ml, 37°C
Method: During incubation, aliquots were removed at different time intervals, washed in buffered high salt solution (10 mM Na-phosphate, 400 mM NaCl, 10 mM MgCl2), diluted and plated on MH plates. The number of bacterial CFU was determined after approximately 48 h of incubation at 37°C.

[3] = test system: E. coli HB101 constitutively expressing the luxCDABE operon; assay: Cell viability assay (luxCDABE luminescence); format: cell-based, Escherichia coli; conditions: at MIC, within the first 10 min after addition of peptide; 50% MH, OD600 0.2, 30°C
Method: E.coli HB101 was transformed with the plasmid pCGLS-11 to enable constitutive bacterial luciferase expression from the luxCDABE operon. The resulting strain was used for cell viability assays as follows. An overnight culture in MH medium with ampicillin (100 µg/ml) was pelleted at 3000×g for 10 min and washed in MH medium before re-suspending the cells in 50% MH medium with a final OD600 of approximately 0.2. After 30 min of incubation at 30°C the cells were again adjusted to an OD600 of 0.2. An aliquot of 95 µl of bacterial solution was dispensed into each well of a black 96 well microtiter plate with transparent bottom (Falcon, Bredford, MA, USA). To achieve the indicated concentrations, a multi-channel pipette was used to add 5 µl of a two-fold dilution series of peptide solution in water to 8 wells simultaneously. The plate was loaded into a Perkin-Elmer Envision microtiter plate reader immediately after addition of the peptide (arasin 1(1–23), PR-39(1–26) or cecropin P1) and the measurement started 30 sec later because of handling events and 2 seconds of shaking inside the plate reader. Light production and growth (OD595) of the sensor bacteria was followed for 3 h under repeated shaking cycles before each measurement at 30°C.

E. coli HB101 [4] = assay: Membrane integrity assay II (propidium iodide, flow cytometry); format: cell-based, Escherichia coli; conditions: at MIC; PI flow cytometry
Method: The effect of arasin 1(1–23) and cecropin P1 on membrane permeabilization was also studied by measuring the percentage of propidium iodide (PI) positive cells by flow cytometry. Samples of 1×10^6 cells/ml of E. coli HB101 were incubated in 50% MH with peptides at 37°C for different time span. After incubation, PI (Sigma Aldrich, Saint Louis, MO, USA) was added to the peptide-treated bacteria at a final concentration of 10 µg/ml. The cells were analyzed after 4 min of incubation with PI at 37°C in the flow cytometer as described.

Gram-negative bacteria = conditions: cited from earlier work
Method: The high standard deviation values only observed at 20 µM (5×MIC) for both the viability assay (Fig. 3) and the membrane integrity assay (Fig. 6) indicate that activity around this concentration was very sensitive to individual assay conditions.

E. coli = assay: Antimicrobial activity at varied MH concentration; format: cell-based, Escherichia coli; conditions: results not shown
Source text: In contrast to the results from E. coli and P. aeruginosa, the C-terminal part of arasin 1(1–23) alone arasin 1(7–23) and 1(9–23) inhibits C. glutamicum and all the fungi. At the same time this antibacterial and antifungal activity is strictly dependent on a fragment between aa 13–23. This indicates a somewhat different mode of action for Gram- negative and Gram-positive bacteria, respectively. Likewise the mode of action against fungi is likely different. It is tempting to speculate that the N-terminal 5–10 amino acids might be involved in arasin 1(1–23) transfer across the outer membrane while the C-terminal part might bind the molecular target which is responsible for growth inhibition at low concentrations. The antimicrobial assays were all performed in MH or potato dextrose medium at a final concentration of 50% strength for bacteria and fungi, respectively. […] This means that the peptides are very sensitive to medium composition, and perhaps also salinity and/or ionic strength. […] In some studies, the use of diluted or poor medium instead of rich medium in MIC and mode of action studies is claimed to increase the sensitivity of the assays, [47]. The reasons of the medium-dependence have not been further evaluated, and 50% MH was used as the standard medium for the mode of action studies.

[5] = test system: human red blood cells (RBC); assay: Hemolytic assay; conditions: read-out: EC50 (peptide concentration producing 50% hemolysis); 1% RBC suspension in PBS pH 7.4, 37°C, 1 h, absorbance at 550 nm; 100% hemolysis = 0.05% Triton X-100
Method: The erythrocytes were pelleted by centrifugation at 450×g for 10 min and washed three times with phosphate-buffered saline (PBS; 320 mOsm, pH 7.4). The cell pellet was resuspended in 4 ml PBS and adjusted to a suspension giving 10% RBC. The test was performed in a 96 well U-shaped microtiter plate (Nunclon™ Surface, No. 163320; Nagle Nunc Int., Roskilde, Denmark), in which 50 µl peptide were incubated with 40 µl PBS and 10 µl RBC suspension. The synthetic peptides were tested at final concentrations ranging from 0.2 to 100 µM. After incubation in a shaker at 37°C for 1 h, the plate was centrifuged at 200×g for 5 min. The supernatants (60 µl) were carefully transferred to a new flat-bottomed polycarbonate microtiter plate (Nunc™ No. 269620, Nagle Nunc Int., Roskilde, Denmark), and absorbance was measured at 550 nm. Baseline hemolysis and 100% hemolysis were defined as the amount of hemoglobin released in the presence of PBS and 0.05% Triton X-100 (Sigma-Aldrich, Saint Louis, MO, USA), respectively. The EC50 value was taken as the mean concentration of peptide producing 50% hemolysis.

| Molecule | MIC E. coli ATCC 25922 (E. coli ATCC 25922) [µM] | MIC E. coli HB101 (E. coli HB101 [1]; lowest concentration with no visible bacterial growth after 24 h, 37°C, 2.5×10^5 cells/mL, representative of three individual experiments) [µM] | MIC against E. coli HB101 (figure legend) (E. coli HB101 [1]; value used for mode of action studies) [µM] | MIC P. aeruginosa ATCC 27853 (P. aeruginosa ATCC 27853) [µM] | MIC C. glutamicum ATCC 13032 (C. glutamicum ATCC 13032) [µM] | MIC S. aureus ATCC 9144 (S. aureus ATCC 9144) [µM] | IC50 (S. cerevisiae spp.) [µM] | IC50 (C. albicans ATCC 10231) [µM] | IC50 B. cinerea 101 (B. cinerea 101; lowest concentration tested giving less than 50% visible growth vs growth control, potato dextrose medium, 20°C, 48 h, three individual experiments) [µM] | time to kill all the bacteria (E. coli HB101 [2]) | reduction of light emitted [3] [%] | incubation time after which damage of the membrane was induced (E. coli HB101 [4]) [min] | MBC against Gram-negative bacteria (Gram-negative bacteria) [µM] | IC50 (B. cinerea 101; 101, 48 h) [µM] | change of antimicrobial activity against E. coli by varying the MH concentration (E. coli) | EC50 [5] [µM] |
| --- | --- | --- | --- | --- | --- | --- | --- | --- | --- | --- | --- | --- | --- | --- | --- | --- |
| CC[C@H](C)[C@H](NC(=O)CNC(=O)[C@H](CCC(=O)O)NC(=O)[C@H](CO)NC(=O)[C@@H](NC(=O)[C@H](CCCNC(=N)N)NC(=O)[C@H](CCCCN)NC(=O)[C@H](CCCCN)NC(=O)[C@H](C)NC(=O)[C@H](CO)NC(=O)[C@H](CC(N)=O)NC(=O)[C@H](CCC(=O)O)NC(=O)[C@H](CC(C)C)NC(=O)[C@H](CCCCN)NC(=O)[C@H](CCCCN)NC(=O)[C@H](C)NC(=O)[C@@H](NC(=O)[C@H](CCCCN)NC(=O)[C@H](CO)NC(=O)[C@H](CC(C)C)NC(=O)[C@H](Cc1c[nH]c2ccccc12)NC(=O)[C@@H](N)CO)[C@@H](C)O)[C@@H](C)CC)C(=O)N[C@@H](C)C(=O)N[C@H](C(=O)N[C@@H](C)C(=O)N[C@H](C(=O)N[C@@H](CCC(N)=O)C(=O)NCC(=O)NCC(=O)N1CCC[C@H]1C(=O)N[C@@H](CCCNC(=N)N)C(=O)O)[C@@H](C)CC)[C@@H](C)CC [Cecropin P1, reference compound] (H-SWLSKTAKKLENSAKKRISEGIAIAIQGGPR-OH; N-terminus and C-terminus assumed) | 0.8 to 1.6 | 0.8 to 1.6 | 1 (≈ 3.34 µg/mL) | 0.8 to 1.6 | 0.4 to 1.6 | >100 | 6.3 | 12.5 | 50 | approximately 15 min | 60 | 5 | 1 to 2 | – | – | – |
| CC[C@H](C)[C@H](NC(=O)[C@H](CCCNC(=N)N)NC(=O)[C@@H]1CCCN1C(=O)[C@@H]1CCCN1C(=O)[C@H](CC(C)C)NC(=O)[C@H](CCCNC(=N)N)NC(=O)[C@@H]1CCCN1C(=O)[C@@H]1CCCN1C(=O)[C@H](Cc1ccccc1)NC(=O)[C@H](Cc1ccccc1)NC(=O)[C@@H]1CCCN1C(=O)[C@@H]1CCCN1C(=O)[C@@H]1CCCN1C(=O)[C@H](CCCNC(=N)N)NC(=O)[C@@H]1CCCN1C(=O)[C@H](CCCNC(=N)N)NC(=O)[C@@H]1CCCN1C(=O)[C@H](CC(C)C)NC(=O)[C@H](Cc1ccc(O)cc1)NC(=O)[C@@H]1CCCN1C(=O)[C@@H]1CCCN1C(=O)[C@H](CCCNC(=N)N)NC(=O)[C@@H]1CCCN1C(=O)[C@H](CCCNC(=N)N)NC(=O)[C@H](CCCNC(=N)N)NC(=O)[C@@H](N)CCCNC(=N)N)C(=O)O [PR39(1–26), reference compound] (H-RRRPRPPYLPRPRPPPFFPPRLPPRI-OH; N-terminus and C-terminus assumed) | 0.8 to 1.6 | – | – | 3.1 to 6.3 | 0.4 (≈ 1.29 µg/mL) | 50 (≈ 161 µg/mL) | 12.5 | 12.5 | – | – | – | – | – | 12.5 | did not change the antimicrobial activity | – |
| mellitin B: hemolytic control peptide purchased from Sigma-Aldrich | – | – | – | – | – | – | – | – | – | – | – | – | – | – | – | 2 |
